# Results reported in PMC4564171 (PLoS ONE, 2015).
# Assays:
# S. flexneri = tested on: S. flexneri; parameters: method as in PMID 24549153; conditions: at the tested concentrations; cited from earlier work
# [1] = target: T1, MalE-VirF binding to the pvirB DNA probe (Shigella flexneri, UniProt P0A2T1); assay: Fluorescence polarization (FP) assay, inhibition of MalE-VirF binding to the pvirB DNA probe
# T1 construct: pMALvirF was constructed by cloning the virF gene into the vector, pMAL-c2x; made in house; host or cells: Shigella flexneri BS103 (pBAD202-MALvirF); initial preparations in E. coli KS1000 (pMALvirF)
# T1 sequence (P0A2T1 whole entry, looked up): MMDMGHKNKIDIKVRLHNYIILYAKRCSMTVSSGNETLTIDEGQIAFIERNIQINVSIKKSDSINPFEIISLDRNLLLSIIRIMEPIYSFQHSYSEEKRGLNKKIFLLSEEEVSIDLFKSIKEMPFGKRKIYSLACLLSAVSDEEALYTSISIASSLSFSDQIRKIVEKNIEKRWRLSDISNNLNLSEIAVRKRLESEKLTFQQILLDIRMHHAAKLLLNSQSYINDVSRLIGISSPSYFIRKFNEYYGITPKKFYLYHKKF
# Method: The FP assays were conducted in duplicate in black, half-area, 96-well plates (Corning, Twerksbury, MA). First, 30 μL of 5’-Fluoroscein-pvirB DNA probe working standard was added to appropriate wells of the microplate. The pvirB DNA working standard was in TE/NaCl buffer (see above) supplemented with BSA (0.07 mg/mL) and salmon sperm DNA (0.7 mg/mL). Next, 30 μL of varying concentrations of MalE-VirF in amylose resin elution buffer (see above) was added to appropriate wells of the microplate. The final concentration of pvirB DNA was either 50 nM (for test wells) or none (for blank wells) and the final concentrations of MalE-VirF ranged from 45 μM to 0.12 μM (for test wells) or none (for control wells). For each concentration of MalE-VirF tested, a blank well was also set up that included all reagents except pvirB DNA. The microplate was then incubated for 20 minutes at 37°C and anisotropy was determined using a SpectraMax M5 plate reader (Molecular Devices, Sunnyvale, CA). Data was acquired using an excitation wavelength equal to 490 nm and an emission wavelength equal to 520 nm. To determine anisotropy the following equation was used: Anisotropy=F∥-G^*F⊥/F∥+2^*G^*F⊥^*1000 where: Fǁ = fluorescence intensity parallel to excitation source after blanking, F┴ = fluorescence intensity perpendicular to excitation source after blanking, and G = G-factor (correction for polarization bias of the detection system). After anisotropy was determined, data were plotted using GraphPad Prism (La Jolla, Ca) and fit to the following equation: […] where Y = specific binding, KD = dissociation constant, BMAX = maximum binding, X = MalE-VirF concentration, and b = y-intercept.
# The FP protocol listed above was adapted to determine the IC50 of the small molecule hit compounds. Compounds (ranging from 200 μM to 3.1 μM) or DMSO for controls (1% final concentration) were added to the pvirB DNA probe working standard prior to addition to the microplates. For IC50 determination, the MalE-VirF and pvirB DNA probe concentrations were held constant at 20 μM and 50 nM, respectively. Positive controls were established to determine 100% VirF inhibition (no MalE-VirF present, 50 nM pvirB DNA probe) and negative controls were set up to determine no VirF inhibition (1% DMSO, 20 μM MalE-VirF, and 50 nM pvirB DNA probe). Once again blanks were set up to include all reagents, except pvirB DNA probe. All reactions were run in duplicate. Anisotropy was calculated as listed above and data were plotted using GraphPad Prism then fit to the following equation: Y=Bottom+(Top-Bottom)/(1+10^(X-logIC50)) where: Y = anisotropy, X = log of compound concentration (M), Top and Bottom = plateaus in anisotropy units, and LogIC50 = log of the concentration that inhibits 50% of VirF binding. In the presence of the compounds (no VirF), a small increase (~6%) in the DNA anisotropy was observed.
# The FP protocol used for IC50 determination was adapted to test a library of small molecule inhibitors of VirF. All steps were identical to the above protocol except compounds were tested at only 100 μM final concentration and positive control samples included 100 μM of compound. Once again blanks were set up to include all reagents, except pvirB DNA probe, and all reactions were run in duplicate. Anisotropy was calculated as listed above, and %inhibition was calculated as follows: %inhibition=rneg-rtest/rneg^*100 where: rneg = average anisotropy for negative controls and rtest = average anisotropy in presence of compound. Note: All rneg and rtest values were normalized to positive control values.
# [2] = tested on: 60 bp pvirB FID DNA probe; assay: Fluorescence intercalator displacement (FID) assay, 60 bp probe; format: binding, Shigella flexneri; conditions: for 60 bp pvirB FID probe %fluorescence: ethidium bromide 45 μM, probe 1.5 μM
# Method: The FID protocol was based on previously published studies and was conducted in triplicate. For the assay, black, half-area, 96-well plates (Corning, Twerksbury, MA) were used. First, 70 μL of ethidium bromide in Tris Buffer (0.1 M Tris HCl, 0.1 M NaCl, pH 8.0) was added to all wells. The concentration of ethidium bromide was contingent upon the length of the DNA probe that was used. For the 60 bp pvirB FID DNA probe, the final ethidium bromide concentration used was 45 μM; whereas, for the 10 bp pvirB (51–60) FID DNA probe, the final ethidium bromide concentration used was 7.5 μM. Next, 10 μL of either pvirB FID DNA probes (10 or 60 bp) in TE/NaCl buffer (see above) or 10 μL of TE/NaCl buffer (background fluorescence control) were added to the appropriate wells of the plate. The final concentrations of the pvirB FID DNA probes were 1.5 μM. Lastly, 20 μL of test compound (either 19615 or Berenil) in 10% DMSO Tris Buffer or 20 μL of 10% DMSO Tris Buffer (100% fluorescence control) were added to the appropriate wells of the plate. The final concentrations of each test compound ranged from 12.5 μM to 100 μM. After the addition of all reagents, the plates were protected from light and allowed to equilibrate for 30 min on an orbital shaker at room temperature. Following equilibration, fluorescence was measured […] using a Biotek Synergy H1 plate reader (Winooski, VT). The average background fluorescence was subtracted from all data generated and %fluorescence was calculated for all wells containing compound via the following formula: %fluorescence=Ftest/F100%^*100 where: Ftest = the average fluorescence value obtained for each test compound and F100% = the average fluorescence value obtained for each 100% fluorescence control.
smiles,measurement,setting,value
CN(C)CCOc1nc(-c2ccccc2)nc2c1oc1ccccc12 [compound 19615],Toxicity to S. flexneri,S. flexneri,not toxic
same,IC50,[1],46 ± 2.2 µM
same,Ki,[1],5.6 µM
same,inhibition at 100 µM,[1]; read-out: % Inhibition at 100 μM,63%
same,Displacement of ethidium bromide from the pvirB DNA probes (FID),"[2]; 12.5 to 100 μM, both 60 bp and 10 bp probes",not able to displace ethidium bromide
same,60 bp pvirB FID probe %fluorescence,[2]; compound 12.5 μM,93% ± 3%
same,60 bp pvirB FID probe %fluorescence,[2]; compound 25 μM,97% ± 2%
same,60 bp pvirB FID probe %fluorescence,[2]; compound 50 μM,95% ± 2%
same,60 bp pvirB FID probe %fluorescence,[2]; compound 100 μM,93% ± 3%
